Results on 1 compound are retold here after patent publication US12534748B2, “Engineered beta-subunit of tryptophan synthase for production of non-canonical amino acids” (California Institute of Technology, priority 2015, dated 2026).

Each structure is given as a SMILES string. Several values for one entry are separate records, joined by “and”; a condition that tells them apart may be missing. Equal entries are not always repeated.

The target in assay [1] is T1, Pyrococcus furiosus tryptophan synthase beta-subunit PfTrpB, wild type, SEQ ID NO: 2 (Pyrococcus furiosus, UniProt Q8U093).
T1 sequence (Q8U093 with tags, fused parts or gaps): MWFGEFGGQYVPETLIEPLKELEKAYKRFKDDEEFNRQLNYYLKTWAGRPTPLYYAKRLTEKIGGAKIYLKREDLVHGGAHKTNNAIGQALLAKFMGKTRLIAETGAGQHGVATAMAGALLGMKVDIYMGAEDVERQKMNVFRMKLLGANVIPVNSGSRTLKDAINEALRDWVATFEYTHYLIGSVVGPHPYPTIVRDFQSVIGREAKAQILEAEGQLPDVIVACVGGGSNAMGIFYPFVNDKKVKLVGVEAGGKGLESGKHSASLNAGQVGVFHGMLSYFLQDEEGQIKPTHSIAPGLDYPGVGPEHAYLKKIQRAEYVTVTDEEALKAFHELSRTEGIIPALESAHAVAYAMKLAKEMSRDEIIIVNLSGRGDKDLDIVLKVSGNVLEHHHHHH
As to the kind of experiment: Tryptophan formation from L-serine and indole, kinetics of wild-type PfTrpB. In kind it is biochemical. The note with it: 75° C., pH 8.0, Trp formation at 290 nm. Here is the method:
(§1) Cloning, Expression, and Purification of PfTrpA and PfTrpB. The genes encoding PfTrpB (UNIPROT ID Q8U093) and PfTrpA (UNIPROT ID Q8U094) were obtained as gBlocks and cloned into pET22(b)+ for expression in E. coli BL21 E. cloni EXPRESS cells (Lucigen). Heterologous protein expression of PfTrpA and PfTrpB was performed in Terrific Broth with 100 μg/mL ampicillin (TBamp) and induced with 500 mM IPTG (final concentration 1 mM). PfTrpB was purified via a HisTrap HP column. PfTrpA was purified via a Q HP HiTrap column (flow-through), followed by ammonium sulfate precipitation, and hydrophobic interaction chromatography on a phenyl Sepharose HP HiTrap column (FIG. 3).
Kinetics and UV-Vis Spectroscopy. Data were collected between 550 and 250 nm on a UV1800 Shimadzu spectrophotometer (Shimadzu) using 0.25-20 μM of enzyme in 200 mM potassium phosphate (pH 8.0) in a quartz cuvette. Samples were incubated at 75° C. for >3 min to ensure a stable temperature was reached. PfTrpB activity (kcat) was measured by monitoring tryptophan formation at 290 nm using Δe290=1.89 mM^−1·cm^−1.
Selection of the Parent Enzyme, TrpB, from Pyrococcus furiosus. […]

The target in assay [2] is T2, Pyrococcus furiosus tryptophan synthase complex PfTrpS (PfTrpA + PfTrpB) (Pyrococcus furiosus, UniProt Q8U093).
T2 sequence (Q8U093 with tags, fused parts or gaps): T1 sequence (Q8U093 with tags, fused parts or gaps)
T2 sequence (Q8U094 1-248 partner): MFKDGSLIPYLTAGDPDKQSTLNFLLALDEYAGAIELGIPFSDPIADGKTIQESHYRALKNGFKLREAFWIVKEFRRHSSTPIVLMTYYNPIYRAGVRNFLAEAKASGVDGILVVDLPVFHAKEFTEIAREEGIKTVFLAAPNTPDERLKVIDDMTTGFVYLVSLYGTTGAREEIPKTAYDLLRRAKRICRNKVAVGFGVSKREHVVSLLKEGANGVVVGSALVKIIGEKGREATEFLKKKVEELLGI
Description: Tryptophan formation from L-serine and indole, kinetics of PfTrpS complex. Type of assay: biochemical. As to the method:
as §1
Kinetics and UV-Vis Spectroscopy.
Selection of the Parent Enzyme, TrpB, from Pyrococcus furiosus.

Turning to `c1ccc2[nH]ccc2c1` [indole], the kcat (commonly the maximal rate divided by the concentration of active sites) in assay [1] is 0.31 s⁻¹ and 0.31 ± 0.02 s⁻¹; in assay [2] (75° C.), 1.0 s⁻¹. In addition, in assay [2] (PfTrpS relative to PfTrpB), the “increase in catalytic efficiency for indole upon complexation” value was determined as 12 fold. Also, the Km (in general, the substrate concentration at which the rate is half of its maximum) in assay [2] (read-out: KM, indole, 75° C.) came out at 20 µM.
